{
  "source": "patent US6469067B1",
  "about": "“Combinations” (Novartis AG, priority 1999, dated 2002)",
  "system": "Dermanyssus gallinae",
  "experiment": "In vitro effect on Dermanyssus gallinae",
  "conditions": "single component; for activity in terms of preventing oviposition, component alone: at 0.32 and 10 ppm",
  "method": "For the sake of simplicity, the chicken mite Dermanyssus gallinae is used. This is a good model for determining the effect on ticks.\nIn vitro Effect on Dermanyssus gallinae\nThe test is carried out with serial dilutions [avermectin component in concentrations of (32), 10, 3.2, 1.0, 0.32 to 0.0001 ppm; the 1-[4-chloro-3-(3-chlor-5-trifluoromethyl-2-pyridyloxy)phenyl]-3-(2,6-difluorobenzoyl)urea in concentrations of 100, 32, 10, 3.2, 1.0, 0.32 and 0.1 ppm]. For the test, the lowest concentration of one active substance is combined with the lowest concentration of the other active substance, and the limits of activity thus worked out. Ten fully engorged female mites of the genus Dermanyssus gallinae adhered to a plastic adhesive film are brought into contact with 50 μl of an aqueous suspension or emulsion of the test combination in question. After drying, the film is stuck onto a glass disc. This creates a kind of air bubble around each mite, the lower surface of which is formed by the glass disc and the upper surface by a bulging of the adhesive film. This bubble contains sufficient air for the mite to avoid suffocating. After 5 days, the effect of the test substance is evaluated with the aid of a stereomicroscope by assessing the effect on mortality, oviposition, egg quality, hatching rate, pupation rate, and development of protonymphs according to the following 4 criteria:\n1) if 9 to 10 mites are dead, this indicates a lethal effect (characterised by M);\n3) if 2 or more mites survive and produce eggs, but no larvae hatch from these eggs and no protonymphs develop, this indicates a development-inhibiting effect (H);\n4)if 2 or more mites survive and lay the usual number of normal eggs, from which larvae hatch and develop into protonymphs, this indicates no activity (−).\nIn each test, two basic suspensions/emulsions (without active ingredient) and one suspension/emulsion with only one of each component are also tested in the corresponding concentrations.\nThe test is repeated three times with the following combinations and the results determined. The final result is given in Tables 1 to 3, whereby in the tables marked with a the combinations from the prior art are listed and in the tables marked with b the results of the combinations according to the invention are listed.",
  "data": [
    {"compound": "O=C(NC(=O)c1c(F)cccc1F)Nc1cc(Cl)c(Oc2ncc(C(F)(F)F)cc2Cl)c(Cl)c1", "note": "[A, chlorfluazuron]", "values": [
      {"measurement": "activity against Dermanyssus gallinae, component alone", "setting": "all tested concentrations", "result": "no activity at any concentration"}
    ]},
    {"compound": "O=C(NC(=O)c1c(F)cccc1F)Nc1ccc(Cl)c(Oc2ncc(C(F)(F)F)cc2Cl)c1", "note": "[B, 1-[4-chloro-3-(3-chloro-5-trifluoromethyl-2-pyridyloxy)phenyl]-3-(2,6-difluorobenzoyl)urea]", "values": [
      {"measurement": "concentration up to which oviposition is prevented, component alone", "result": 0.01, "unit": "ppm"}
    ]},
    {"compound": "CO[C@H]1C[C@H](O[C@H]2[C@H](C)O[C@@H](O[C@@H]3/C(C)=C/C[C@@H]4C[C@@H](C[C@]5(C=C[C@H](C)[C@@H](C6CCCCC6)O5)O4)OC(=O)[C@@H]4C=C(C)[C@@H](O)[C@H]5OC/C(=C\\C=C\\[C@@H]3C)[C@]54O)C[C@@H]2OC)O[C@@H](C)[C@@H]1O", "note": "[Doramectin]", "values": [
      {"measurement": "activity in terms of preventing oviposition, component alone", "result": "full activity"}
    ]},
    {"compound": "CO/N=C1\\C[C@]2(C[C@@H]3C[C@@H](C/C=C(\\C)C[C@@H](C)/C=C/C=C4\\CO[C@@H]5[C@H](O)C(C)=C[C@@H](C(=O)O3)[C@]45O)O2)O[C@H](/C(C)=C/C(C)C)[C@H]1C", "note": "[Moxidectin]", "values": [
      {"measurement": "activity in terms of preventing oviposition, component alone", "result": "full activity"}
    ]},
    {"compound": "Ivermectin", "values": [
      {"measurement": "activity in terms of preventing oviposition, component alone", "result": "full activity"}
    ]}
  ]
}
